The record followed here is patent US4388304A, “Angiotensin-II analogues with antagonizing effects, containing an ester group in position 8, and a process for the preparation thereof” (Richter Gedeon Vegyeszeti Gyar RT, priority 1980, dated 1983).

The test deals with narcotized male cats. Description: Antagonism of Hypertensin (angiotensin-II) infusion-induced blood pressure rise in narcotized male cats. The format is in vivo, cat. On the procedure: The antagonistic effects of the new compounds of the general formula (I) were investigated on narcotized male cats. After treating the animals with a ganglion blocking agent and bisecting the cervical vagus nerves on both side, an infusion of Hypertensin (CIBA) was given to the animals at a rate of 0.5 μg/kg/min. When the blood pressure of the animals reached a steady, increased level, the substance to be tested was administered either intravenously or subcutaneously in physiological saline solution or as an aqueous solution which also contained a carrier. The blood pressure drop was measured in mm Hg units, and the extent of decrease was expressed in percent related to the value before treatment. The statistical evaluation was performed on the basis of the blood pressure differences, by Student's single sample "t" test. The term "duration of effect" denotes the period elapsed until the observation of the last, still significant (p=5%) blood pressure difference.

[1] abbreviates: s.c., carboxymethyl cellulose (CMC), dose 50 μg/kg.
The mark [2] stands for this setting: s.c., carboxymethyl cellulose (CMC), dose 100 μg/kg.
Setting [3] is: s.c., physiological saline, dose 50 μg/kg.
[4] abbreviates: s.c., physiological saline, dose 100 μg/kg.
Where [5] appears, read: s.c., carboxymethyl cellulose (CMC), dose 200 μg/kg.

As to `CC[C@H](C)[C@H](NC(=O)[C@H](Cc1ccc(O)cc1)NC(=O)[C@@H](NC(=O)[C@H](CCCNC(=N)N)NC(=O)CNC)C(C)C)C(=O)N[C@@H](Cc1c[nH]cn1)C(=O)N1CCC[C@H]1C(=O)N[C@@H](C)C(=O)OC` [(Sar^1,Ala--OMe^8)-Ang-II, (sarcosine^1, alanine methyl ester^8)-angiotensin-II], the “blood pressure decrease, percent related to the value before treatment” value (from here on “blood pressure decrease, percent related”) reads like this: (i.v., dose 10 μg/kg) 18%; (i.v., dose 20 μg/kg) 29%; under setting [1], 11%; under setting [2], 18%; under setting [3], 20%; under setting [4], 20%. This molecule also returned a duration of effect (i.v., dose 10 μg/kg) of 12 min; a duration of effect (i.v., dose 20 μg/kg) of 60 min; a duration of effect under setting [1] of 22 min; a duration of effect under setting [2] of 22 min; a duration of effect under setting [3] of 45 min; a duration of effect under setting [4] of 45 min.
Take `CC[C@H](C)[C@H](NC(=O)[C@H](Cc1ccc(O)cc1)NC(=O)[C@@H](NC(=O)[C@H](CCCNC(=N)N)NC(=O)CNC)C(C)C)C(=O)N[C@@H](Cc1c[nH]cn1)C(=O)N1CCC[C@H]1C(=O)N[C@H](C(=O)OC)[C@@H](C)CC` [(Sar^1,Ile--OMe^8)-Ang-II, (sarcosine^1, isoleucine methyl ester^8)angiotensin-II]: the “blood pressure decrease, percent related” value amounted to 21% (i.v., dose 20 μg/kg); 20% (i.v., dose 40 μg/kg); 9% under setting [1]; 17% under setting [2]; 5% (s.c., gelatine, dose 100 μg/kg); 23% (s.c., gelatine, dose 200 μg/kg). Further, the “blood pressure decrease, percent related” value by setting is: under setting [3], 8%; under setting [4], 25%. Moreover, the duration of effect by setting is: (i.v., dose 20 μg/kg) 25 min; (i.v., dose 40 μg/kg) 38 min; under setting [1], “.phi”; under setting [2], 200 min; (s.c., gelatine, dose 100 μg/kg) 15 min; (s.c., gelatine, dose 200 μg/kg) 300 min. For the same molecule, the duration of effect is, setting by setting: under setting [3], 180 min; under setting [4], 240 min.
As for `CNCC(=O)N[C@@H](CCCN=C(N)N)C(=O)N[C@H](C(=O)N[C@@H](Cc1ccc(O)cc1)C(=O)N[C@H](C(=O)N[C@@H](Cc1cnc[nH]1)C(=O)N1CCC[C@H]1C(=O)N[C@@H](C)C(=O)O)C(C)C)C(C)C` [Saralasin, (Sar^1, Ala^8)-angiotensin-II, reference compound], the “blood pressure decrease, percent related” value was found to be 32% (i.v., dose 10 μg/kg); 23% under setting [2]; 28% under setting [5]; 23% (s.c., gelatine, dose 200 μg/kg); 29% under setting [4]; 24% (s.c., physiological saline, dose 200 μg/kg). Also, the duration of effect by setting is: under setting [2], 45 min; under setting [5], 90 min; (s.c., gelatine, dose 200 μg/kg) “.phi”.
For the molecule `CC[C@H](C)[C@H](NC(=O)[C@H](Cc1ccc(O)cc1)NC(=O)[C@@H](NC(=O)[C@H](CCCNC(=N)N)NC(=O)CNC)C(C)C)C(=O)N[C@@H](Cc1c[nH]cn1)C(=O)N1CCC[C@H]1C(=O)N[C@H](C(=O)OC)[C@@H](C)OC` [(Sar^1,Thr/Me/--OMe^8)-Ang-II, (sarcosine^1, threonine/Me/methyl ester^8)-angiotensin-II], for the setting “i.v., dose 20 μg/kg”, the “blood pressure decrease, percent related” value amounted to 12% and the duration of effect was 12 min. Under setting [4], the “blood pressure decrease, percent related” value is reported as 27% and the duration of effect turned out to be 45 min.
